In US5229420A, “Ethereal N-terminal aminodiol amino acid derivatives as anti-hypertensive agents” (G. D. Searle & Co., priority 1991, dated 1993):
pIC50: −log10 of the molar value. Where a SMILES comes first, the peptide text is derived from it. [ ]: non-standard residue; d: D form. The star is where a group is joined. Sta = CC(C)C[C@H](N)[C@@H](O)CC(=O)O; Isovaleryl = CC(C)CC(=O)*

What was measured:
[1] = system: Plasma Renin Activity; assay: Oral Effect of Compounds on Plasma Renin Activity in Sodium Depleted Marmoset; assay type: in vivo, Common marmosets (Callithrix jacchus); settings: @ 1 h, 3 mg/kg dose
Description: The oral activity of compounds of Formula I was determined in vivo in Marmoset monkeys in accordance with the following procedure: Common marmosets (Callithrix jacchus, Charles River) were placed on a modified high protein low sodium diet (Purina, St. Louis, Mo.) for 1 to 2 weeks. On the day of the test an animal was anesthetized with isoflurane and cannulated in the femoral artery and vein for blood pressure monitoring, intravenous saralasin infusion and blood sampling. After allowing the animal to recover from surgery for 2 hr, saralasin was infused at 1 microgram/min for 15 minutes to confirm that the animal's blood pressure was dependent on angiotensin II levels. The marmoset was allowed to stabilize for 30 min after the saralasin infusion. The test compound was administered orally and blood pressure was monitored for 2 hr. Blood samples were taken in K-EDTA for plasma renin activity before, 30 min, and 1 hr after compound administration.

[2] = molecular target: T1, human renin (Homo sapiens, UniProt P00797); assay: human renin inhibition test, in vitro (angiotensin I by radioimmunoassay); assay type: biochemical; settings: pH 7.4, 37° C., two hours
T1 construct: purchased National Institute for Biological Standards, London
T1 sequence (P00797 67-406): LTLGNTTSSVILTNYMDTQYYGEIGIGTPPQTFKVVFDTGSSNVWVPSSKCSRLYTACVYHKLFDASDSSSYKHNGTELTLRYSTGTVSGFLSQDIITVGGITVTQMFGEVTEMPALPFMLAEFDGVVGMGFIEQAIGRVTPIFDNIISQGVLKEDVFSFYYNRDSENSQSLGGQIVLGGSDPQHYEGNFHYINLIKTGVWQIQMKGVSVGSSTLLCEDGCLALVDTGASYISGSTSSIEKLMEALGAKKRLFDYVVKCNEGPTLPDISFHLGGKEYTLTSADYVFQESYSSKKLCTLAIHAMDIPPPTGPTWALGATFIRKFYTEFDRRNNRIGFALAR
Description: Compounds of Formula I were evaluated as inhibitors of human renin in an in vitro assay, as follows: This human renin inhibition test has been previously described in detail [Papaioannou et al., Clinical and Experimental Hypertension, A7(9), 1243-1257 (1985)]. Human renin was obtained from the National Institute for Biological Standards, London. An incubation mixture was prepared containing in total volume of 0.25 mL 100 mM Tris-acetate buffer at pH 7.4, 25×10^-6 Goldblatt units of renin, 0.05 mL of plasma from human volunteers taking oral contraceptives,6.0 mM sodium EDTA, 2.4 mM phenylmethyl sulfonyl fluoride, 1.5 mM 8-hydroxyquinoline, 0.4 mg/mL BSA, and 0.024 mg/mL neomycin sulfate. This mixture was incubated for two hours at 37° C. in the presence or absence of renin inhibitors. The produced angiotensin I was determined by radioimmunoassay (New England Nuclear kit). Test compounds to be assayed were solubilized in DMSO and diluted with 100mM Tris-acetate buffer at pH 7.4 containing 0.5 % bovine serum albumin (BSA) to the appropriate concentration. The final concentration of organic solvent in the reaction mixture was less than 1%. Control incubations at 37° C. were used to correct for effects of organic solvent on renin activity.

[3] = system: pepsin; settings: cited from earlier work
[4] = system: renin; settings: cited from earlier work
[5] = system: hog renin; settings: after injection of hog renin into nephrectomized rats; cited from earlier work
[6] = system: cathepsin D; settings: cited from earlier work

pIC50 [2] | SMILES | % Reduction of Plasma Renin Activity [1] [%] | also measured
8.92 | COCCN(C)C(=O)O[C@@H](Cc1ccccc1)C(=O)N[C@@H](Cc1cnc[nH]1)C(=O)N[C@@H](CC1CCCCC1)[C@@H](O)[C@@H](O)CC(C)C [Example 8, O-[N-methyl-N-(2-methoxyethyl)aminocarbonyl]-3-L-phenyllactyl-L-histidineamide of (2S,3R,4S)-2-amino-1-cyclohexyl-3,4-dihydroxy-6-methylheptane] | 99 | –
8.00 | COCCN(C)C(=O)O[C@@H](Cc1ccccc1)C(=O)N[C@@H](CC(C)C)C(=O)N[C@@H](CC1CCCCC1)[C@@H](O)[C@@H](O)CC(C)C [Example 9, O-(N-methyl-N-(2-methoxyethyl)aminocarbonyl)-3-L-phenyllactyl-L-leucineamide of (2S,3R,4S)-2-amino-1-cyclohexyl-3,4-dihydroxy-6-methylheptane] | 79 | –
7.21 | COCCN(C)C(=O)O[C@@H](Cc1ccccc1)C(=O)NC[C@@H](C)C(=O)N[C@@H](CC1CCCCC1)[C@@H](O)[C@@H](O)CC(C)C [Example 13, O-(N-methyl-N-(2-methoxyethyl)aminocarbonyl)-3-L-phenyllactyl-α-(R)-methyl-β-alanineamide of (2S,3R,4S)-2-amino-1-cyclohexyl-3,4-dihydroxy-6-methylheptane] | – | –
– | CC[C@H](CNC(=O)[C@H](CCc1ccccc1)CC(=O)N(C)CCOC)C(=O)N[C@@H](CC1CCCCC1)[C@@H](O)[C@@H](O)CC(C)C [Example 15, 3-(N-methyl-N-(2-methoxyethyl)aminocarbonyl)-2-(R)-(2-phenylethyl)propionyl-α-(R)-ethyl-β-alanineamide of (2S,3R,4S)-2-amino-1-cyclohexyl-3,4-dihydroxy-6-methylheptane] | – | inhibition at 0.05 µM ([2]; @ 5 × 10^-8 M): 17%
7.35 | COCCN(C)C(=O)C[C@@H](CCc1ccccc1)C(=O)NC[C@@H](C)C(=O)N[C@@H](CC1CCCCC1)[C@@H](O)[C@@H](O)CC(C)C [Example 16, 3-(N-methyl-N-(2-methoxyethyl)aminocarbonyl)-2-(R)-2-phenethylpropionyl-α-(R)-methyl-β-alanineamide of (2S,3R,4S)-2-amino-1-cyclohexyl-3,4-dihydroxy-6-methylheptane] | – | –
– | CC(C)CC(=O)N[C@H](C(=O)N[C@H](C(=O)N[C@@H](CC(C)C)[C@@H](O)CC(=O)N[C@@H](C)C(=O)N[C@@H](CC(C)C)[C@@H](O)CC(=O)O)C(C)C)C(C)C [pepstatin] (Isovaleryl-VV[Sta]A[Sta]-OH) | – | inhibition of pepsin (in words) [3]: inhibitor of aspartyl proteases such as pepsin; inhibition of renin (in words) [4]: inhibitor of aspartyl proteases such as pepsin, cathepsin D and renin; reduction of blood pressure in vivo [5]: found to reduce blood pressure in vivo; inhibition of cathepsin D (in words) [6]: inhibitor of aspartyl proteases such as pepsin, cathepsin D
